Data from ChEMBL document CHEMBL1201862, “PubChem BioAssay data set” (2004).
Activity calls are given as the source filed them.

Legend:
Caspase-3 = target: T1, Caspase-3 (Homo sapiens, UniProt P42574); type: functional;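 note: Dose-response selectivity test against caspase-3 for candidate inhibitors of sentrin-specific proteases (SENPs)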
T1 sequence (P42574 whole entry): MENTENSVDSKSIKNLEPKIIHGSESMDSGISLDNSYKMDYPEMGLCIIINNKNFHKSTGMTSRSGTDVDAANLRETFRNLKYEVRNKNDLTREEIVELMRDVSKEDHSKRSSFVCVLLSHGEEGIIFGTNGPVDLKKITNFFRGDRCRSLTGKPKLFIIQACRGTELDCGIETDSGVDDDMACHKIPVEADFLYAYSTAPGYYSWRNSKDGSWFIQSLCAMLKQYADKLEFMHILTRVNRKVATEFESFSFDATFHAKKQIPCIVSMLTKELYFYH

[1] = target: T2, Sentrin-specific protease 6 (Homo sapiens, UniProt Q9GZR1); type: functional;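 note: Luminescence-based dose-response confirmatory assay of SENP6 inhibition, following up an ultra-high-throughput screen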
T2 sequence (Q9GZR1 whole entry): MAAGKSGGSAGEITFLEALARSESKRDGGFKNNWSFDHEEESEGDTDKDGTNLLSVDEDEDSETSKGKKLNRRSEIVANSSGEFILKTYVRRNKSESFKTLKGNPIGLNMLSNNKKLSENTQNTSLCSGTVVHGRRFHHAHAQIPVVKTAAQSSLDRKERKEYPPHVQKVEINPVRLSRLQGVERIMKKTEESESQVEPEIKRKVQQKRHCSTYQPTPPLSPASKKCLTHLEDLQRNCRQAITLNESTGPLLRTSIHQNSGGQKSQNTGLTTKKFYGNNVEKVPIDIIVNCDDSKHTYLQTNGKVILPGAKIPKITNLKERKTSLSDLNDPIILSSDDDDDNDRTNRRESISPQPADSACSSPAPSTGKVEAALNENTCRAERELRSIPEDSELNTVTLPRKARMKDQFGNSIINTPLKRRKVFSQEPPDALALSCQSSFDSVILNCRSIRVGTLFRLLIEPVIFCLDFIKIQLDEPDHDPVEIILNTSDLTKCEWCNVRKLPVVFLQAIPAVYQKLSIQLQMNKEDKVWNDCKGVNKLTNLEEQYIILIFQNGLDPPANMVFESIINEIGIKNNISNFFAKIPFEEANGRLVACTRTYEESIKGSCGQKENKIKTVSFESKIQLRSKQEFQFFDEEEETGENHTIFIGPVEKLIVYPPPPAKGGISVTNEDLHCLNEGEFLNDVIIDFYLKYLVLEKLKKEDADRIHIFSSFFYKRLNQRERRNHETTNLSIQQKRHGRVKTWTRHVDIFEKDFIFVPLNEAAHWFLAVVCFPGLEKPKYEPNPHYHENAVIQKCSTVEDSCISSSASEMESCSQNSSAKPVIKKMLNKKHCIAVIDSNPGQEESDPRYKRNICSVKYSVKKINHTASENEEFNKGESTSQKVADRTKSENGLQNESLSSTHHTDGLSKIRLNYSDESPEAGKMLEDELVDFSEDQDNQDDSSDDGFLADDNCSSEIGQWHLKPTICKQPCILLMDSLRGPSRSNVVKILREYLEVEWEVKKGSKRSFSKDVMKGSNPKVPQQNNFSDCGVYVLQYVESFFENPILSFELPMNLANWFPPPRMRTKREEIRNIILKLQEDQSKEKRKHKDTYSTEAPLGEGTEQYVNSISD

[2] = system: Streptococcus sp. 'group A'; assay: Streptococcus pyogenes SK(-)GAS viability under kanamycin – luminescence, BacTiterGlo, confirmation, counter-screen for streptokinase expression inhibitor project, dose response (AID 1900); type: functional, organism-based
[3] = target: Leukocyte tyrosine kinase receptor (Homo sapiens, UniProt P29376); assay: Navigating the Kinome. Panel member name: LTK; type: functional
Sequence of Leukocyte tyrosine kinase receptor (P29376 whole entry): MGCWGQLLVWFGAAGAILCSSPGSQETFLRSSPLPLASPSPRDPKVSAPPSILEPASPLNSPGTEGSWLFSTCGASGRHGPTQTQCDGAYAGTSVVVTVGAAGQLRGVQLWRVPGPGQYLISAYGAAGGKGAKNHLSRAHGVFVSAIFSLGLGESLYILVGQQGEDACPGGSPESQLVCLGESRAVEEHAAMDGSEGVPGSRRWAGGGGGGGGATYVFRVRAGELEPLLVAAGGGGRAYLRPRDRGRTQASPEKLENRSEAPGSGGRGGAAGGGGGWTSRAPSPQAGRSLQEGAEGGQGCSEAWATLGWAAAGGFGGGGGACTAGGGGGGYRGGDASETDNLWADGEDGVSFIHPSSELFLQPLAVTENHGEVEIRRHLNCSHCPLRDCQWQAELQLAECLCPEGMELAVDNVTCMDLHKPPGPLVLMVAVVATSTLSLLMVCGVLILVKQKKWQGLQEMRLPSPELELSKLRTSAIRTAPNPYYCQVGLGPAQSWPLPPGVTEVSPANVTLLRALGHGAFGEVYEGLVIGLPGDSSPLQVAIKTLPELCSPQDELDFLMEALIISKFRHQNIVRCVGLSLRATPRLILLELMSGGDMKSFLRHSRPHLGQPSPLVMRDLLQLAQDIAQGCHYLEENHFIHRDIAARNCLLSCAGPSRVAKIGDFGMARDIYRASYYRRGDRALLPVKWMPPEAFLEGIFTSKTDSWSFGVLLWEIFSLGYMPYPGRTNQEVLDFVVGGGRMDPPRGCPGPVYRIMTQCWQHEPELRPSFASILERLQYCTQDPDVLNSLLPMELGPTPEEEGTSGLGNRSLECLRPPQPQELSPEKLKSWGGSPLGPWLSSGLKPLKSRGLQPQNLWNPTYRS

[4] = target: Tyrosine-protein kinase JAK3 (Homo sapiens, UniProt P52333); type: functional
Sequence of Tyrosine-protein kinase JAK3 (P52333 whole entry): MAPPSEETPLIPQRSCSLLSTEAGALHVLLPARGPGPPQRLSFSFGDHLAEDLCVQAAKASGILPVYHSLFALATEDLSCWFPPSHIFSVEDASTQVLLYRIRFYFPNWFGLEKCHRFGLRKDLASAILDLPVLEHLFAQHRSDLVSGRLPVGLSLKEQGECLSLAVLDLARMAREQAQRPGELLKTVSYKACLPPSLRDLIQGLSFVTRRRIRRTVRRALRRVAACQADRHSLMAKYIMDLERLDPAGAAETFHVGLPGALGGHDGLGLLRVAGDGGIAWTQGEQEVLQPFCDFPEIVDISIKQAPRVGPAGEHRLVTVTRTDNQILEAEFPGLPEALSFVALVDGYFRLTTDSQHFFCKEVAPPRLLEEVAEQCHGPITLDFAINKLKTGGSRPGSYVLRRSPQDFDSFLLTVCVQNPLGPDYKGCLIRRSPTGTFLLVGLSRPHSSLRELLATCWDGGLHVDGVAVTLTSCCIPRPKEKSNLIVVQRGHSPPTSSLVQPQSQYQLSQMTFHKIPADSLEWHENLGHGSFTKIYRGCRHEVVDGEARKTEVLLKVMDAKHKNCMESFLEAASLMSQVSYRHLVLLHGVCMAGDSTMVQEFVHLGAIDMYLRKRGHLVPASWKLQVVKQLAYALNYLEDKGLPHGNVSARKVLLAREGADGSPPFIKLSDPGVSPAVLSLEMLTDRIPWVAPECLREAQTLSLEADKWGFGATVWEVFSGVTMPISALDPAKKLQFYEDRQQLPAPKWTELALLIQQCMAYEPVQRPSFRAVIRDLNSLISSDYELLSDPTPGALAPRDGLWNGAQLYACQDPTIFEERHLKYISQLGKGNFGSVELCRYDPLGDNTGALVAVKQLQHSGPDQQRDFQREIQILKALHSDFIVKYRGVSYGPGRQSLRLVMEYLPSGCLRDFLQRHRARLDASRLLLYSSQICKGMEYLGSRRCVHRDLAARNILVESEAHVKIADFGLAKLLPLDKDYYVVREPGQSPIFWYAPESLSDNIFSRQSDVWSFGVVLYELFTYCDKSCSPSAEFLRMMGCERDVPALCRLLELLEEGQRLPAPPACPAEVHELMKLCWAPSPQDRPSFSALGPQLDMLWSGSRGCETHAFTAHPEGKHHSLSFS

[5] = target: Dual specificity tyrosine-phosphorylation-regulated kinase 1A (Homo sapiens, UniProt Q13627); type: functional;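 note: measured against DYRK1A as one member of a broad kinome profiling panel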
[6] = target: Mitogen-activated protein kinase 9 (Homo sapiens, UniProt P45984); type: functional;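 note: value from a kinome panel profiling assay, MAPK9 panel entry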
Sequence of Mitogen-activated protein kinase 9 (P45984 whole entry): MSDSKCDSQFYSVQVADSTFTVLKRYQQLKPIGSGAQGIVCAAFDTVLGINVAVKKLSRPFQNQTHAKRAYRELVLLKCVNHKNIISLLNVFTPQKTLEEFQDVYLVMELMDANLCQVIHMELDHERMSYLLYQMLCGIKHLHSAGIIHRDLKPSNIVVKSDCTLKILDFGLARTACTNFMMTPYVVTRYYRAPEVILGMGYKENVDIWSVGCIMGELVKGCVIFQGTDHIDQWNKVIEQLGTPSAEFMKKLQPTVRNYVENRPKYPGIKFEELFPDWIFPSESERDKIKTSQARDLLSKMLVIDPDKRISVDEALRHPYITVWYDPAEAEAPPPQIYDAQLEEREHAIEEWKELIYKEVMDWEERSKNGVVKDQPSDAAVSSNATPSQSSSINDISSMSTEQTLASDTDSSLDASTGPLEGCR

[7] = target: Serine/threonine-protein kinase Chk1 (Homo sapiens, UniProt O14757); type: functional;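 note: measured as one member of a kinome-wide kinase profiling panel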
Sequence of Serine/threonine-protein kinase Chk1 (O14757 whole entry): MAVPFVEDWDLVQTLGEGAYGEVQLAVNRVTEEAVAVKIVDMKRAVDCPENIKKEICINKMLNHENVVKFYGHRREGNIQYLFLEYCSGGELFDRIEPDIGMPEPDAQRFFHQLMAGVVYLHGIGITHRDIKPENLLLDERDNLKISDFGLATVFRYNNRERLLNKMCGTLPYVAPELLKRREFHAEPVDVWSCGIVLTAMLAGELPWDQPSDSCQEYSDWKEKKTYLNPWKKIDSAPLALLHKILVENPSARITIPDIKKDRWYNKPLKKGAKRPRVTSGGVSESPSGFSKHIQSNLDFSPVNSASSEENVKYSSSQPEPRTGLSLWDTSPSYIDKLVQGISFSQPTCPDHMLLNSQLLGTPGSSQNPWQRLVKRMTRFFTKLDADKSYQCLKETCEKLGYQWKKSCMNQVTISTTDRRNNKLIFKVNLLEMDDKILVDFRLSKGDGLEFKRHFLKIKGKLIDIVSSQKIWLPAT

Ki [3] | Ki [5] | SMILES | IC50 (Caspase-3) | IC50 [1] | EC50 [2] | other results
 |  | CCCNC(=O)c1c(N)n(CC2CCCO2)c2nc3ccccc3nc12 (configuration not stated) | 15200 nM (active) | 2010 nM (active) |  | 
 |  | O=C1/C(=C\c2cccc(O)c2O)SC(=S)N1Cc1ccccc1 |  |  | 2770 nM (active) | 
 |  | CC(C)(C)c1cc[n+](C2=C([N-]S(=O)(=O)c3cccs3)C(=O)c3ccccc3C2=O)cc1 | 23800 nM (active) | 5530 nM (active) | 2730 nM (active) | 
158 nM (active) | 200 nM (active) | COc1c(-c2nc3ccccc3[nH]2)c(O)cc2oc(C)cc(=O)c12 |  |  |  | Ki [4]: 3980 nM (active); Ki [6]: 2510 nM (active); Ki [7]: 39.8 nM (active)
10000 nM (active) | 39800 nM (active) | COC(=O)c1c(N)nc2ccccn12 |  |  |  | Ki [6]: 31600 nM (active)
 |  | CCc1ccc(S(=O)(=O)/N=C2\C=C(Nc3ccc(O)cc3)C(=O)c3ccccc32)cc1 |  |  | 1860 nM (active) | 
 |  | Cc1cc([N+](=O)[O-])cc(/C=N\NC(=O)C2COc3ccccc3O2)c1O (configuration not stated) | 17600 nM (active) | 28400 nM (active) | 2740 nM (active) | 
1000 nM (active) | > 2000 nM (inactive) | Cc1ccc(F)c(NC(=O)Nc2ccc(-c3cccc4[nH]nc(N)c34)cc2)c1 [LINIFANIB] |  |  |  | Ki [4]: > 5010 nM (inactive); Ki [7]: > 3160 nM (inactive)
